{"source": "patent US20140121240A1", "about": "“NOVEL PHARMACEUTICAL COMPOSITION” (MARUHO CO., LTD., priority 2011, published 2014)", "key": {"[1]": {"system": "histamine-induced scratching behavior", "assay": "Antipruritic activity in histamine-induced scratching model, dose response (Experiment 3 (1))", "assay_type": "in vivo, mouse", "method": "(1) [Antipruritic Activity of Test Compound in Histamine-Induced Scratching Model]\nAfter topical administration of a solution (50 μL) of test compound (0.3 to 3% w/v solution of Compound A in acetone, or 0.03 to 0.3% w/v solution of cipamfylline in acetone), or a vehicle (acetone; 50 μL) onto right dorsal neck of ICR female mice similarly pre-treated as described in Experiment 1, these animals were placed into a testing apparatus (MicroAct). After one hour of the administration of said test compound solution or vehicle, a solution (50 μL) of histamine in saline (300 nmol/50 μL) or saline (50 μL; control group) was intradermally administered to right dorsal neck of each mouse. Immediately after the administration, scratching behavior (counts of scratching) was measured for 30 minutes by the testing apparatus (MicroAct)."}, "[2]": {"system": "spontaneous locomotor activity", "assay": "Effect on spontaneous locomotor activity (Experiment 3 (2))", "assay_type": "in vivo, mouse", "conditions": "for Spontaneous locomotor activity (Mean): measured from 1 h after administration", "method": "(2) [Effect of Test Compound on Spontaneous Locomotor Activity] The same solution (50 μL) of test compound or a vehicle (50 μL) as described in the above-mentioned (1) was administered onto right dorsal neck of ICR female mice similarly pre-treated as described in Experiment 1. After one hour of the administration of the test compound solution or vehicle, these animals were placed into an apparatus for measuring spontaneous locomotor activity (SCANET, Melquest Ltd.), and their locomotor activity was measured for 30 minutes."}, "[3]": {"system": "histamine-induced scratching behavior", "assay": "Antipruritic effect in histamine-induced scratching model (Experiment 2)", "assay_type": "in vivo, mouse", "conditions": "for Antipruritic activity (ratio of inhibition rate on scratching behavior to that of Compound A): 3% w/v in acetone 50 μL topical 1 h before histamine 300 nmol/50 μL, ICR female mice, counts for 30 minutes; for antipruritic effect in histamine-induced scratching model, result in words: 3% w/v topical, histamine 300 nmol/50 μL", "method": "[Antipruritic Effect of Test Compound in Histamine-Induced Scratching Model]\nAfter topical administration of a 3% w/v solution of a test compound or a reference compound as described in the following Table 6 in acetone (50 μL) or a vehicle (acetone; 50 μL) onto right dorsal neck of ICR female mice similarly pre-treated as described in Experiment 1, these animals were placed into a testing apparatus (MicroAct). After one hour of the administration of said compound solution or vehicle, a solution (50 μL) of histamine in saline (300 nmol/50 μL) or saline (50 μL) was intradermally administered to right dorsal neck of each mouse. Immediately after the administration, scratching behavior (counts of scratching) was measured for 30 minutes by MicroAct.\nInhibition rate on scratching behavior of each test compound was evaluated in terms of the following formula based on the counts of scratching in the test group in which each test compound solution was administered followed by administration of a histamine solution in saline (counts of scratching in compound-treated group), and the counts of scratching in the test group in which a vehicle (acetone) was administered followed by administration of a histamine solution in saline (counts of scratching in vehicle-treated group).\n(§1) Ratio of inhibition rate on scratching behavior of each test compound to that of Compound A was calculated as antipruritic activity (%). For reference, PDE4 inhibitory activity of each compound (IC50) which was measured by a conventional manner is also shown in such Table."}, "PDE4": {"system": "PDE4", "assay": "PDE4 inhibitory activity measured by a conventional manner", "assay_type": "biochemical", "method": "as §1"}, "[4]": {"system": "oxazolone-induced scratching behavior", "assay": "Chronic oxazolone-induced dermatitis model: scratching behavior (Experiment 4)", "assay_type": "in vivo, mouse", "conditions": "Compound A 1%, Tacrolimus 0.1%, Dexamethasone 0.01% w/v in 0.25% oxazolone", "method": "(§2) [Antipruritic Effect of Test Compound in Chronic Oxazolone-Induced Dermatitis Model]\n(§3) A magnet for measurement was implanted into an instep part of right hindlimb of BALB/c male mouse (fed for one week from five-week old; Charles River Laboratories, Japan Inc.) under anesthesia, and on the same day, sensitization was carried out by topically administering 0.5% w/v solution (10 μL) of oxazolone in acetone respectively onto the both sides of right ear auricle of the animal (sensitization day). On each point of the 7th, 9th, 11th, 14th and 16th day reckoned from the day after the sensitization (1st day), each mouse was challenged by topical administration of a 10 μL solution of test compound [acetone (vehicle-treated group), 0.25% w/v solution of oxazolone in acetone (oxazolone-treated group), or a test compound solubilized in 0.25% w/v oxazolone solution in acetone (test compound-treated group)] onto the both sides of right ear auricle of the animal to produce inflammatory reactions. Immediately after the administration, scratching behavior (counts of scratching) was measured for two hours by MicroAct. Thickness of right ear auricle of each mouse was measured by a thickness gauge before and 24 hours after the topical administration of each test compound solution. The percentage described in the Table means “% w/v”."}, "[5]": {"system": "oxazolone-induced inflammatory reactions of right ear auricle", "assay": "Chronic oxazolone-induced dermatitis model: ear auricle thickness (Experiment 4)", "assay_type": "in vivo, mouse", "conditions": "Compound A 1%, Tacrolimus 0.1%, Dexamethasone 0.01% w/v in 0.25% oxazolone", "method": "as §2, §3"}, "[6]": {"conditions": "sensitization day, BALB/c male mouse"}}, "note": "pIC50: −log10 of the molar value. Marks after values point to notes of the source that are not given here."}
{"molecule": "Nc1nc2c([nH]1)c(=O)n(CC1CC1)c(=O)n2CC1CC1", "note": "[Cipamfylline, cipamfylline]", "values": [{"measurement": "Counts of scratching (Mean)", "setting": "[1]; 0.03% w/v in acetone 50 μL topical 1 h before histamine 300 nmol/50 μL", "result": 579, "unit": "beats/30 min."}, {"measurement": "Counts of scratching (Mean)", "setting": "[1]; 0.1% w/v in acetone 50 μL topical 1 h before histamine 300 nmol/50 μL", "result": 369, "unit": "beats/30 min."}, {"measurement": "Counts of scratching (Mean)", "setting": "[1]; 0.3% w/v in acetone 50 μL topical 1 h before histamine 300 nmol/50 μL", "result": 130, "unit": "beats/30 min."}, {"measurement": "Spontaneous locomotor activity (Mean)", "setting": "[2]; 0.03% w/v in acetone 50 μL topical", "result": 6760, "unit": "counts/30 min."}, {"measurement": "Spontaneous locomotor activity (Mean)", "setting": "[2]; 0.1% w/v in acetone 50 μL topical", "result": 5308, "unit": "counts/30 min."}, {"measurement": "Spontaneous locomotor activity (Mean)", "setting": "[2]; 0.3% w/v in acetone 50 μL topical", "result": 4924, "unit": "counts/30 min."}, {"measurement": "spontaneous locomotor activity lowering effect at a dose producing antipruritic effect, result in words", "setting": "[2]; Compound A 3% w/v, cipamfylline 0.3% w/v", "result": "showed a significant spontaneous locomotor activity lowering effect"}]}
{"molecule": "COc1cc2cc(CO)c(CO)c(-c3ccnc(-n4ncc5ccccc5c4=O)c3)c2cc1OC", "note": "[Compound B]", "values": [{"measurement": "Antipruritic activity (ratio of inhibition rate on scratching behavior to that of Compound A)", "setting": "[3]", "result": 154, "unit": "%"}, {"measurement": "antipruritic effect in histamine-induced scratching model, result in words", "setting": "[3]", "result": "remarkable antipruritic effect"}, {"measurement": "pIC50", "setting": "PDE4", "result": 9.00}]}
{"molecule": "COc1cc2cc(CO)c(CO)c(-c3ccnc(-n4c(=O)cc(OC)c5ccccc54)c3)c2cc1OC", "note": "[Compound C]", "values": [{"measurement": "Antipruritic activity (ratio of inhibition rate on scratching behavior to that of Compound A)", "setting": "[3]", "result": 116, "unit": "%"}, {"measurement": "antipruritic effect in histamine-induced scratching model, result in words", "setting": "[3]", "result": "remarkable antipruritic effect"}, {"measurement": "pIC50", "setting": "PDE4", "result": 8.70}]}
{"molecule": "COc1cc2cc(CO)c(CO)c(-c3ccnc(-n4c(=O)cc(O)c5ccccc54)c3)c2cc1OC", "note": "[Compound D]", "values": [{"measurement": "Antipruritic activity (ratio of inhibition rate on scratching behavior to that of Compound A)", "setting": "[3]", "result": 80, "unit": "%"}, {"measurement": "antipruritic effect in histamine-induced scratching model, result in words", "setting": "[3]", "result": "remarkable antipruritic effect"}, {"measurement": "pIC50", "setting": "PDE4", "result": 8.70}]}
{"molecule": "C[C@@H]1C[C@H]2[C@@H]3CCC4=CC(=O)C=C[C@]4(C)[C@@]3(F)[C@@H](O)C[C@]2(C)[C@@]1(O)C(=O)CO", "note": "[Dexamethasone]", "values": [{"measurement": "Counts of scratching (Mean ± standard error)", "setting": "[4]; 7th day, BALB/c male mouse", "result": "1663 ± 144 (*) beats/2 hr."}, {"measurement": "Counts of scratching (Mean ± standard error)", "setting": "[4]; 9th day", "result": "1845 ± 442", "unit": "beats/2 hr."}, {"measurement": "Counts of scratching (Mean ± standard error)", "setting": "[4]; 11th day", "result": "1274 ± 296", "unit": "beats/2 hr."}, {"measurement": "Counts of scratching (Mean ± standard error)", "setting": "[4]; 14th day", "result": "1791 ± 354", "unit": "beats/2 hr."}, {"measurement": "Counts of scratching (Mean ± standard error)", "setting": "[4]; 16th day", "result": "2211 ± 430", "unit": "beats/2 hr."}, {"measurement": "Ear auricle thickness (Mean)", "setting": "[5]; 7th day", "result": 0.35, "unit": "mm"}, {"measurement": "Ear auricle thickness (Mean)", "setting": "[5]; 8th day", "result": "0.46** mm"}, {"measurement": "Ear auricle thickness (Mean)", "setting": "[5]; 9th day", "result": "0.40** mm"}, {"measurement": "Ear auricle thickness (Mean)", "setting": "[5]; 10th day", "result": "0.45** mm"}, {"measurement": "Ear auricle thickness (Mean)", "setting": "[5]; 11th day", "result": "0.43** mm"}, {"measurement": "Ear auricle thickness (Mean)", "setting": "[5]; 12th day", "result": "0.54** mm"}, {"measurement": "Ear auricle thickness (Mean)", "setting": "[5]; 14th day", "result": "0.49** mm"}, {"measurement": "Ear auricle thickness (Mean)", "setting": "[5]; 15th day", "result": "0.55** mm"}, {"measurement": "Ear auricle thickness (Mean)", "setting": "[5]; 16th day", "result": "0.54** mm"}, {"measurement": "Ear auricle thickness (Mean)", "setting": "[5]; 17th day", "result": "0.64** mm"}, {"measurement": "Ear auricle thickness (Mean)", "setting": "[5]; [6]", "result": 0.27, "unit": "mm"}]}
{"molecule": "COc1cc2cc(CO)c(CO)c(-c3ccnc(-n4ccc5c(CCc6cccnc6)cccc5c4=O)c3)c2cc1OC", "note": "[Reference compound 3]", "values": [{"measurement": "Antipruritic activity (ratio of inhibition rate on scratching behavior to that of Compound A)", "setting": "[3]", "result": "−36", "unit": "%"}, {"measurement": "antipruritic effect in histamine-induced scratching model, result in words", "setting": "[3]", "result": "very weak or was not observed"}, {"measurement": "pIC50", "setting": "PDE4", "result": 10.00}]}
{"molecule": "C=CC[C@@H]1/C=C(\\C)C[C@H](C)C[C@H](OC)[C@H]2O[C@@](O)(C(=O)C(=O)N3CCCC[C@H]3C(=O)O[C@H](/C(C)=C/[C@@H]3CC[C@@H](O)[C@H](OC)C3)[C@H](C)[C@@H](O)CC1=O)[C@H](C)C[C@@H]2OC", "note": "[Tacrolimus]", "values": [{"measurement": "Counts of scratching (Mean ± standard error)", "setting": "[4]; 7th day, BALB/c male mouse", "result": "1130 ± 135 (**) beats/2 hr."}, {"measurement": "Counts of scratching (Mean ± standard error)", "setting": "[4]; 9th day", "result": "1655 ± 231", "unit": "beats/2 hr."}, {"measurement": "Counts of scratching (Mean ± standard error)", "setting": "[4]; 11th day", "result": "990 ± 148", "unit": "beats/2 hr."}, {"measurement": "Counts of scratching (Mean ± standard error)", "setting": "[4]; 14th day", "result": "1023 ± 148 (**) beats/2 hr."}, {"measurement": "Counts of scratching (Mean ± standard error)", "setting": "[4]; 16th day", "result": "2164 ± 324", "unit": "beats/2 hr."}, {"measurement": "Ear auricle thickness (Mean)", "setting": "[5]; 7th day", "result": 0.35, "unit": "mm"}, {"measurement": "Ear auricle thickness (Mean)", "setting": "[5]; 8th day", "result": 0.58, "unit": "mm"}, {"measurement": "Ear auricle thickness (Mean)", "setting": "[5]; 9th day", "result": "0.41** mm"}, {"measurement": "Ear auricle thickness (Mean)", "setting": "[5]; 10th day", "result": "0.49** mm"}, {"measurement": "Ear auricle thickness (Mean)", "setting": "[5]; 11th day", "result": "0.49** mm"}, {"measurement": "Ear auricle thickness (Mean)", "setting": "[5]; 12th day", "result": "0.57** mm"}, {"measurement": "Ear auricle thickness (Mean)", "setting": "[5]; 14th day", "result": "0.52** mm"}, {"measurement": "Ear auricle thickness (Mean)", "setting": "[5]; 15th day", "result": "0.73** mm"}, {"measurement": "Ear auricle thickness (Mean)", "setting": "[5]; 16th day", "result": "0.65** mm"}, {"measurement": "Ear auricle thickness (Mean)", "setting": "[5]; 17th day", "result": "0.71** mm"}, {"measurement": "Ear auricle thickness (Mean)", "setting": "[5]; [6]", "result": 0.27, "unit": "mm"}]}
